Laboratory results reported in patent publication US20240365784A1, “AZOLE COMPOUNDS FOR CONTROLLING INVERTEBRATE PESTS” (FMC Corporation, priority 2021, published 2024).

Tested on: corn planthopper (Peregrinus maidis (Ashmead))
Assay: whole plant or invertebrate
Assay type: in vivo
Settings: 144 h, sprayed at 10 ppm, corn plant, nymphs, assessed after 6 days
Protocol: (§1) Test compounds were formulated using a solution containing 10% acetone, 90% water and 300 ppm Activator 90® non-ionic surfactant (Loveland Products, Loveland, Colorado, USA). The formulated compounds were applied in 1 mL of liquid through an atomizer nozzle positioned 1.27 cm (0.5 inches) above the top of each test unit. Test compounds were sprayed at the rates indicated, and each test was replicated three times.
For evaluating control of corn planthopper (Peregrinus maidis (Ashmead)) through contact and/or systemic means, the test unit consisted of a small open container with a 3-4-day-old corn (maize) plant inside. White sand was added to the top of the soil prior to application of the test compound.
(§2) Test compounds were formulated and sprayed at 250 and/or 50 ppm and/or 10 ppm. After spraying of the formulated test compound, the test units were allowed to dry for 1 h before they were post-infested with ˜15-20 nymphs (18-to-21-day-old). A black, screened cap was placed on the top of each test unit, and the test units were held for 6 days in a growth chamber at 22-24° C. and 50-70% relative humidity. Each test unit was then visually assessed for insect mortality.

Structure (SMILES)	mortality at 10 ppm [%]
Fc1cncc(-n2nccn2)c1Cc1ccc(SC(F)(F)F)cc1 [Compound 2]	≥ 80
FC(F)(F)Sc1ccc(Cc2c(Cl)cncc2-n2cccn2)cc1 [Compound 20]	≥ 80
Fc1cncc(-n2cccn2)c1Cc1ccc(SC(F)(F)F)cc1 [Compound 19]	≥ 80
FC(F)(F)Sc1ccc(Cc2c(Cl)cncc2-n2nccn2)cc1 [Compound 5]	≥ 80
Fc1cc(Cc2c(Cl)cncc2-n2nccn2)ccc1OC(F)(F)F [Compound 70]	≥ 80
FC(F)(F)Sc1ccc(Cc2c(Br)cncc2-n2nccn2)cc1 [Compound 26]	≥ 80

Same assay, conditions: 144 h, sprayed at 50 ppm, corn plant, nymphs, assessed after 6 days

Structure (SMILES)	mortality at 50 ppm [%]
Fc1cncc(-n2nccn2)c1Cc1ccc(SC(F)(F)F)cc1 [Compound 2]	≥ 80
FC(F)(F)Sc1ccc(Cc2c(Cl)cncc2-n2cccn2)cc1 [Compound 20]	≥ 80
FC(F)(F)Sc1ccc(Cc2c(Cl)cncc2-n2nccn2)cc1 [Compound 5]	≥ 80
Fc1cc(Cc2c(Cl)cncc2-n2nccn2)ccc1OC(F)(F)F [Compound 70]	≥ 80
FC(F)(F)Sc1ccc(Cc2c(Br)cncc2-n2nccn2)cc1 [Compound 26]	≥ 80

Tested on: potato leafhopper (Empoasca fabae (Harris))
Assay: Test B: control of potato leafhopper, spray, contact and/or systemic
Assay type: in vivo
Settings: tested at 50 ppm; Soleil bean plant, adults, assessed after 6 days
Protocol: as §1
Each test unit was then visually assessed for insect mortality.

Structure (SMILES)	mortality
Cc1cnn(-c2cncc(F)c2Cc2ccc(OC(F)(F)F)cc2)n1 [Compound 3, 3-fluoro-5-(4-methyltriazol-2-yl)-4-[[4-(trifluoromethoxy)phenyl]methyl]pyridine]	at least 80%

Tested on: green peach aphid (Myzus persicae (Sulzer))
Assay: whole plant or invertebrate
Assay type: in vivo
Settings: 144 h, sprayed at 50 ppm, radish plant, assessed after 6 days
Protocol: as §1
For evaluating control of green peach aphid (Myzus persicae (Sulzer)) through contact and/or systemic means, the test unit consisted of a small open container with a 12-15-day-old radish plant inside. This was pre-infested by placing on a leaf of the test plant 30-40 aphids on a piece of leaf excised from a culture plant (cut-leaf method). The aphids moved onto the test plant as the leaf piece desiccated. After pre-infestation, the soil of the test unit was covered with a layer of sand.
Test compounds were formulated and sprayed at 250 and/or 50 ppm. After spraying of the formulated test compound, each test unit was allowed to dry for 1 hour and then a black, screened cap was placed on top. The test units were held for 6 days in a growth chamber at 19-21° C. and 50-70% relative humidity. Each test unit was then visually assessed for insect mortality.

Structure (SMILES)	mortality at 50 ppm [%]
Fc1cncc(-n2nccn2)c1Cc1ccc(SC(F)(F)F)cc1 [Compound 2]	≥ 80
Fc1cncc(-n2cncn2)c1Cc1ccc(SC(F)(F)F)cc1 [Compound 24]	≥ 80
FC(F)(F)Sc1ccc(Cc2c(Cl)cncc2-n2cccn2)cc1 [Compound 20]	≥ 80
Fc1cncc(-n2cccn2)c1Cc1ccc(SC(F)(F)F)cc1 [Compound 19]	≥ 80
FC(F)(F)Sc1ccc(Cc2c(Cl)cncc2-n2cncn2)cc1 [Compound 21]	≥ 80
FC(F)(F)Sc1ccc(Cc2c(Cl)cncc2-n2nccn2)cc1 [Compound 5]	≥ 80
Fc1cc(Cc2c(Cl)cncc2-n2nccn2)ccc1OC(F)(F)F [Compound 70]	≥ 80
FC(F)(F)Sc1ccc(Cc2c(Br)cncc2-n2nccn2)cc1 [Compound 26]	≥ 80

Tested on: cotton melon aphid (Aphis gossypii (Glover))
Assay: whole plant or invertebrate
Assay type: in vivo
Settings: 144 h, sprayed at 50 ppm, okra plant, assessed after 6 days
Protocol: as §1
For evaluating control of cotton melon aphid (Aphis gossypii (Glover)) through contact and/or systemic means, the test unit consisted of a small open container with a 5-day-old okra plant inside. This was pre-infested with 30-40 insects on a piece of leaf according to the cut-leaf method, and the soil of the test unit was covered with a layer of sand.
[…] After spraying, the test units were maintained in a growth chamber for 6 days at 19° C. and 70% relative humidity. Each test unit was then visually assessed for insect mortality.

Structure (SMILES)	mortality at 50 ppm [%]
Fc1cncc(-n2nccn2)c1Cc1ccc(SC(F)(F)F)cc1 [Compound 2]	≥ 80
Fc1cncc(-n2cncn2)c1Cc1ccc(SC(F)(F)F)cc1 [Compound 24]	≥ 80
FC(F)(F)Sc1ccc(Cc2c(Cl)cncc2-n2cccn2)cc1 [Compound 20]	≥ 80
Fc1cncc(-n2cccn2)c1Cc1ccc(SC(F)(F)F)cc1 [Compound 19]	≥ 80
FC(F)(F)Sc1ccc(Cc2c(Cl)cncc2-n2cncn2)cc1 [Compound 21]	≥ 80
FC(F)(F)Sc1ccc(Cc2c(Cl)cncc2-n2nccn2)cc1 [Compound 5]	≥ 80
Fc1cc(Cc2c(Cl)cncc2-n2nccn2)ccc1OC(F)(F)F [Compound 70]	≥ 80
FC(F)(F)Sc1ccc(Cc2c(Br)cncc2-n2nccn2)cc1 [Compound 26]	≥ 80

Same assay, conditions: 144 h, tested at 10 ppm, okra plant, assessed after 6 days

Structure (SMILES)	mortality at 10 ppm [%]
Fc1cncc(-n2nccn2)c1Cc1ccc(SC(F)(F)F)cc1 [Compound 2]	≥ 80
FC(F)(F)Sc1ccc(Cc2c(Cl)cncc2-n2cccn2)cc1 [Compound 20]	≥ 80
Fc1cncc(-n2cccn2)c1Cc1ccc(SC(F)(F)F)cc1 [Compound 19]	≥ 80
Fc1cc(Cc2c(Cl)cncc2-n2nccn2)ccc1OC(F)(F)F [Compound 70]	≥ 80
FC(F)(F)Sc1ccc(Cc2c(Br)cncc2-n2nccn2)cc1 [Compound 26]	≥ 80

Tested on: sweetpotato whitefly (Bemisia tabaci (Gennadius))
Assay: whole plant or invertebrate
Assay type: in vivo
Settings: 312 h, sprayed at 50 ppm, cotton plant infested with eggs, assessed after 13 days
Protocol: as §1
For evaluating control of the sweetpotato whitefly (Bemisia tabaci (Gennadius)) through contact and/or systemic means, the test unit consisted of a small open container with a 12-14-day-old cotton plant inside. Prior to the spray application, both cotyledons were removed from the plant, leaving one true leaf for the assay. Adult whiteflies were allowed to lay eggs on the plant and then were removed from the test unit. Cotton plants infested with at least 15 eggs were submitted to the test for spraying.
[…] After spraying, the test units were allowed to dry for 1 hour. The cylinders were then removed, and the units were taken to a growth chamber and held for 13 days at 28° C. and 50-70% relative humidity. Each test unit was then visually assessed for insect mortality.

Structure (SMILES)	mortality at 50 ppm [%]
FC(F)(F)Sc1ccc(Cc2c(Cl)cncc2-n2cccn2)cc1 [Compound 20]	≥ 70
Fc1cncc(-n2cccn2)c1Cc1ccc(SC(F)(F)F)cc1 [Compound 19]	≥ 70
FC(F)(F)Sc1ccc(Cc2c(Cl)cncc2-n2cncn2)cc1 [Compound 21]	≥ 70
FC(F)(F)Sc1ccc(Cc2c(Cl)cncc2-n2nccn2)cc1 [Compound 5]	≥ 70
FC(F)(F)Sc1ccc(Cc2c(Br)cncc2-n2nccn2)cc1 [Compound 26]	≥ 70

Same assay, conditions: 312 h, tested at 10 ppm, cotton plant infested with eggs, assessed after 13 days

Structure (SMILES)	mortality at 10 ppm [%]
FC(F)(F)Sc1ccc(Cc2c(Cl)cncc2-n2cccn2)cc1 [Compound 20]	≥ 70
Fc1cncc(-n2cccn2)c1Cc1ccc(SC(F)(F)F)cc1 [Compound 19]	≥ 70
FC(F)(F)Sc1ccc(Cc2c(Cl)cncc2-n2cncn2)cc1 [Compound 21]	≥ 70
FC(F)(F)Sc1ccc(Cc2c(Cl)cncc2-n2nccn2)cc1 [Compound 5]	≥ 70
FC(F)(F)Sc1ccc(Cc2c(Br)cncc2-n2nccn2)cc1 [Compound 26]	≥ 70

Tested on: Brown Planthopper (Nilaparvata lugens (Stil))
Assay: Test F: control of Brown Planthopper, spray, contact and/or systemic
Assay type: in vivo
Settings: 120 h, sprayed at 10 ppm, rice stems, nymphs, assessed after 5 days
Protocol: as §1
For evaluating control of Brown Planthopper (Nilaparvata lugens (Stil)) through contact and/or systemic means, the test unit consisted of a small open container with 6-10 25-day-old rice stems inside. White sand was added to the top of the soil prior to application of the test compound.
as §2, with “at” for “at 250 and/or”, “(15-to-17-day-old).” for “(18-to-21-day-old).”, “5” for “6”, “28°” for “22-24°”, “65%” for “50-70%”

Structure (SMILES)	mortality at 10 ppm [%]
Fc1cncc(-n2nccn2)c1Cc1ccc(SC(F)(F)F)cc1 [Compound 2]	≥ 80
FC(F)(F)Sc1ccc(Cc2c(Cl)cncc2-n2cccn2)cc1 [Compound 20]	≥ 80
Fc1cncc(-n2cccn2)c1Cc1ccc(SC(F)(F)F)cc1 [Compound 19]	≥ 80
FC(F)(F)Sc1ccc(Cc2c(Cl)cncc2-n2nccn2)cc1 [Compound 5]	≥ 80
FC(F)(F)Sc1ccc(Cc2c(Br)cncc2-n2nccn2)cc1 [Compound 26]	≥ 80

Tested on: not given
Assay: not given
Settings: not given

Structure (SMILES)	melting point [°C]
Fc1cncc(-n2nccn2)c1Cc1ccc(Br)cc1 [Compound 31]	80 to 83
[O-][S+](c1ccc(Cc2ccncc2-n2nccn2)cc1)C(F)(F)F (centres unmarked) [Compound 28]	81 to 84

Tested on: green peach aphid (Myzus persicae (Sulzer))
Assay: whole plant or invertebrate
Assay type: in vivo
Settings: 144 h, tested at 10 ppm, radish plant, assessed after 6 days

Structure (SMILES)	mortality at 10 ppm [%]
Fc1cncc(-n2nccn2)c1Cc1ccc(SC(F)(F)F)cc1 [Compound 2]	≥ 80
Fc1cncc(-n2cncn2)c1Cc1ccc(SC(F)(F)F)cc1 [Compound 24]	≥ 80
FC(F)(F)Sc1ccc(Cc2c(Cl)cncc2-n2cncn2)cc1 [Compound 21]	≥ 80
FC(F)(F)Sc1ccc(Cc2c(Cl)cncc2-n2nccn2)cc1 [Compound 5]	≥ 80
Fc1cc(Cc2c(Cl)cncc2-n2nccn2)ccc1OC(F)(F)F [Compound 70]	≥ 80
FC(F)(F)Sc1ccc(Cc2c(Br)cncc2-n2nccn2)cc1 [Compound 26]	≥ 80
